Experimental data published in patent US8409560B2, “Solid dispersion formulations and methods of use thereof” (Zalicus Pharmaceuticals Ltd., priority 2011, dated 2013).
Values after ≈ are worked out from the molar mass of the structure shown. Where two headings read alike, the source gives them in different places.

Columns and labels:
[1] = Adverse effects at doses of up to 1,600 mg; type: in vivo
Source text: Yet, compound 1 is also known to have decreased oral bioavailability in the fasted state, as compared to the fed state. Accordingly, the invention provides formulations to increase the oral bioavailability or to reduce patient-to-patient variability in pharmacokinetic behavior of compound 1, compound 2, or a salt thereof. Generally, amorphous forms of a drug are more readily absorbed within the gastric and intestinal system and, thus, have increased bioavailability, as compared to crystalline forms of the drug. These formulations include use of a solid dispersion system to provide a matrix polymer capable of maintaining therapeutically effective amounts of compound 1, compound 2, or a salt thereof, in an amorphous form.

[2] = Solubility of compound 1 (previously determined); type: physicochemical
Source text: (§1) Compound 1 has the following previously determined characteristics: […]

[3] = Dissolution of solid dispersions, gastric-to-FaSSIF media transition at 13 minutes; type: physicochemical; settings: unformulated; pH 1.0-to-6.5
Protocol: FIGS. 1A-1H are graphs showing the dissolution rate in gastric media for solid dispersion formulations having 20% (w/w) loading of compound 1 and a gastric-to-FaSSIF (pH 1.0-to-6.5) media transition at 13 minutes. […]
Various formulations were tested to reduce precipitation. As shown in FIGS. 1A-1H, solubility was measured for the following formulations: carboxymethylethyl cellulose (CMEC, FIG. 1A), cellulose acetate phthalate (CAP, FIG. 1B), hydroxypropylmethyl cellulose acetate succinate M grade (HPMCAS-M, FIG. 1C), polyvinyl acetate phthalate (PVAP, FIG. 1D), methacrylic acid-methyl methacrylate copolymer (Eudragit® L 100, FIG. 1E), polyethylene glycol-polyvinylcaprolactam-polyvinylacetate copolymer (Soluplus®, FIG. 1F), hydroxypropylmethyl cellulose phthalate (HPMCP-H55, FIG. 1G), and polyvinylpyrrolidone vinylacetate copolymer (PVP-VA, FIG. 1H). […]
Further tests were conducted with different % loading of compound 1. Dissolution rates were measured for formulations have 35% (w/w) loading (FIGS. 2A-2C) and 50% (w/w) loading (FIGS. 3A-3D). CAP, HPMCAS-M, Eudragit® L 100, and PVAP were further analyzed for these tests. […]

[4] = Modulated differential scanning calorimetry (MDSC), glass transition temperature Tg; type: physicochemical; settings: compound 1 alone
Protocol: FIG. 6 is a graph showing modulated differential scanning calorimetry measurements at ambient relative humidity for solid dispersion formulations having 20% (w/w) loading of compound 1. Glass transition temperature Tg is shown for formulations of carboxymethylethyl cellulose (CMEC), hydroxypropylmethyl cellulose acetate succinate M grade (HPMCAS-M), cellulose acetate phthalate (CAP), and polyvinyl acetate phthalate (PVAP).
Various solid dispersion formulations were tested using modulated differential scanning calorimetry (MDSC). MDSC measurements provide glass transition temperature Tg values, which can be used to understand the molecular mobility of a drug within the dispersion. […] Data for Eudragit® L 100 are not shown, but Tg is likely greater than 150° C. due to polymer degradation above this temperature. All recorded Tg values were at least twice as high as compound 1 alone (Tg=41.6° C.). Lower Tg values could indicate potential stability issues over long periods of time or at an increased temperature or pressure. Table 3 provides Tg values for CAP (formulation 1), HPMCAS-M (formulation 2), and PVAP.

[5] = log P of compound 1 (previously determined); type: physicochemical
Source text: as §1

[6] = pKa of compound 1 (previously determined); type: physicochemical
Source text: as §1

[7] = Hygroscopicity of compound 1 free base (previously determined); type: physicochemical; settings: at 70% relative humidity (RH)
Source text: Compound 1 has the following previously determined characteristics:
(vii) hygroscopicity (for free base): 0.09% at 70% relative humidity (RH);

solubility in propylene glycol, ethanol, and tetrahydrofuran (in words) [2]: soluble
solubility ([2]; acetone, organic solvent or mixture, read-out: solubility in acetone): ≤ 50000 µg/mL
solubility ([2]; pH 6.5, pH of 6.5 in FaSSIF, read-out: solubility): 1.5 µg/mL (≈ 3.26 µM)
solubility in water (in words) ([2]; water): slightly soluble
solubility ([2]; water, pH 1, simulated gastric fluid, pH of 1.0, read-out: solubility in water): 55 µg/mL (≈ 119 µM)
solubility ([2]; water, pH 6.5, aqueous buffer, pH of 6.5, read-out: solubility in water): 0.03 µg/mL (≈ 0.0651 µM)
solubility ([2]; water, pH 6.8, aqueous buffer, pH of 6.8, read-out: solubility in water): 0.2 to 2 µg/mL (≈ 0.434 to 4.34 µM)
behaviour in FaSSIF media following exposure to gastric media [3]: rapidly precipitated
Tg [4]: 41.6 °C
logP [5]: 2.6
pKa [6]: 5.4
hygroscopicity [7]: 0.09%
Structure (SMILES): O=C(CC(c1ccccc1)c1ccccc1)N1CCN(C(c2ccccc2)c2ccccc2)CC1 [Compound 1, 1-(4-benzhydrylpiperazin-1-yl)-3,3-diphenylpropan-1-one]
adverse effects [1]: no adverse effects
